Test results taken from patent US20030204862A1, “Inbred embryonic stem-cell derived mice” (priority 2002, published 2003).
Several values for one entry are separate records, joined by “and”; a condition that tells them apart may be missing. Identical values can stand only once.

Tests used:
[1] = system: C57BL/6 blastocysts; assay: Derivation of ES cell lines from C57BL/6 blastocysts in medium with MEK inhibitor; type: cell-based, mouse; settings: for Efficiency to derive ES lines / Number of established ES lines: C57BL/6, PD98059 50 then 25 micromolar, 18 blastocysts, UO126 10 then 4 micromolar, 40 blastocysts, 39° C; for higher efficiency of ES cell line derivation in the presence of the MEK inhibitor versus standard conditions: compared with standard conditions (Table 1)
Protocol: ES cell derivation was essentially performed as described by Hogan et al. (Manipulating the mouse embryo, CSHL Press 1994, pp253-89), except that cell culture was performed at 39° C. instead of 37° C. C57BL/6 (Janvier, France), 129SvEv/Tac (Taconic M&B, Denmark) or C57BL/6-APCMin (Jackson Laboratories, USA) male and female mice were mated to obtain blastocysts from fertilized females. The C57BL/6-APCMin mouse strain harbours a spontaneous mutation in the APC tumor suppressor gene (Su L K et al (1992) Science 256:668-670) and provides a genetic model for human hereditary colon cancer. Plug positive females were set aside, and 3 days later blastocysts were isolated by flushing their uteri. The blastocysts were further cultured overnight in CZB medium (Chatot et al. (1990) Biol. Reprod. 42:432-440) and then transferred into 12-well tissue culture plates (1 blastocyst per well), precoated with a monolayer of Mitomycin-C inactivated primary mouse embryonic fibroblasts, in standard ES cell culture medium (“standard conditions”) (Torres and Kuehn, Laboratory protocols for conditional gene targeting, Oxford University Press 1997), or in standard medium supplemented with the MEK inhibitor PD 98059 (NEB Biolabs) (50 micromolar concentration, diluted from a 50 millimolar stock in DMSO stored at −20° C.) or with the MEK inhibitor UO126 (10 micromolar concentration; NEB Biolabs). These cultures were incubated in a tissue culture incubator (Heraeus) for 6 days at 39° C. in a 10% CO2 atmosphere. The outgrown inner cell mass of each blastocyst was isolated with a pipette tip under low power magnification, transferred into a 50 microliter drop of Trypsin solution and incubated at 39° C. for 5-10 minutes. This cell clump was further dissociated by pipetting, the cells were transferred into tissue culture dishes and further propagated at 39° C. using standard ES cell culture conditions (Torres and Kuehn 1997, supra), with and without PD98059 (50 micromolar) or UO126 (10 micromolar). After the initial establishment of ES cell lines propagated in the presence of PD98059 (6 days after the first dissociation) the concentration of PD98059 was reduced to 25 micromolar, the concentration of UO 126 was reduced to 4 micromolar, and the cells were further propagated. The C57BL/6 line Bruce4 (Kontgen et al, (1993) Int Immunol. 5:957-964) was grown under standard conditions at 37° C.
(§1) The sex of the cell lines was determined through Southern blot hybridisation of genomic DNA using a detection probe (pY353) specific to a Y-chromosome specific repeat (Bishop C E and Hatat D. (1987) Nucleic Acids Res 15, 2959-2969).
For the karyotype analysis of ES cell clones, 4×10^6 cells were cultured for 1 hour in the presence of 0.2 μg/ml Demicolchicin (Sigma), trypsinised, resuspended in a hypotonic (0.56%) KCl solution and incubated for 8 minutes at room temperature. The swollen cells were sedimented by centrifugation, resuspended in freshly prepared fixative (3:1 mixture of ethanol/glacial acetic acid) and subsequently washed 2 times in fixative. Finally, the cells were resuspended in 0.5 ml fixative and dropped on glass slides precleaned with ethanol/acetic acid (19/1). After air drying, the metaphase spreads were stained for 5 minutes in a 2% solution of Giemsa's stain (Merck), washed in water, and air-dried. The chromosome numbers of 20 suitable metaphase spreads were counted at 1000× magnification under oil immersion.

[2] = system: 129SvEv/Tac blastocysts; assay: Derivation of ES cell lines from 129SvEv/Tac blastocysts in medium with MEK inhibitor; type: cell-based, mouse; settings: PD98059 50 then 25 micromolar, 12 blastocysts, 39° C
Protocol: ES cell derivation was essentially performed as described by Hogan et al. (Manipulating the mouse embryo, CSHL Press 1994, pp253-89), except that cell culture was performed at 39° C. instead of 37° C. C57BL/6 (Janvier, France), 129SvEv/Tac (Taconic M&B, Denmark) or C57BL/6-APCMin (Jackson Laboratories, USA) male and female mice were mated to obtain blastocysts from fertilized females. The C57BL/6-APCMin mouse strain harbours a spontaneous mutation in the APC tumor suppressor gene (Su L K et al (1992) Science 256:668-670) and provides a genetic model for human hereditary colon cancer. Plug positive females were set aside, and 3 days later blastocysts were isolated by flushing their uteri. The blastocysts were further cultured overnight in CZB medium (Chatot et al. (1990) Biol. Reprod. 42:432-440) and then transferred into 12-well tissue culture plates (1 blastocyst per well), precoated with a monolayer of Mitomycin-C inactivated primary mouse embryonic fibroblasts, in standard ES cell culture medium (“standard conditions”) (Torres and Kuehn, Laboratory protocols for conditional gene targeting, Oxford University Press 1997), or in standard medium supplemented with the MEK inhibitor PD 98059 (NEB Biolabs) (50 micromolar concentration, diluted from a 50 millimolar stock in DMSO stored at −20° C.) or with the MEK inhibitor UO126 (10 micromolar concentration; NEB Biolabs). These cultures were incubated in a tissue culture incubator (Heraeus) for 6 days at 39° C. in a 10% CO2 atmosphere. […]
as §1
(§2) For the karyotype analysis of ES cell clones, 4×10^6 cells were cultured for 1 hour in the presence of 0.2 μg/ml Demicolchicin (Sigma), trypsinised, resuspended in a hypotonic (0.56%) KCl solution and incubated for 8 minutes at room temperature. […] The chromosome numbers of 20 suitable metaphase spreads were counted at 1000× magnification under oil immersion.

[3] = system: C57BL/6 ES cell lines; assay: ES mouse production by injection of C57BL/6 inbred ES cells into tetraploid blastocysts; type: in vivo; settings: for Number of respirating pups / respirating pups efficiency: E 19.5; for Number of surviving pups / surviving pups efficiency: alive three days later
Protocol: (§3) Production of mice by tetraploid embryo complementation has been previously described (Eggan et al. (2001) PNAS 98:6209-6214). Briefly, embryo culture was carried out in microdrops on standard bacterial petri dishes (Falcon) under mineral oil (Sigma). Modified CZB media (Chatot et al, Supra) was used for embryo culture unless otherwise noted. Hepes buffered CZB was used for room temperature operations. After administration of hormones, superovulated B6D2F1 females were mated with B6D2F1 males. Fertilized zygotes were isolated from the oviduct and any remaining cumulus cells were removed with hyluronidase. After overnight culture, two-cell embryos were electrofused to produce one cell tetraploid embryos using a CF150-B cell fusion instrument from BLS (Budapest, Hungary) according to the manufacturers instructions. Embryos that had not undergone membrane fusion within 1 hour were discarded. Embryos were then cultured in vitro to the blastocyst stage. For microinjection, 5-6 blastocysts were placed in a drop of DMEM with 15% FCS under mineral oil. A flat tip, piezo actuated microinjection-pipette with an internal diameter of 12-15 μm was used to inject 15 ES cells into each blastocyst. After recovery, ten injected blastocysts were transferred to each uterine horn of 2.5 days post coitum, pseudopregnant NMRI females that had been mated with vasectomized males. For cesarian derivation, recipient mothers were sacrificed at E 19.5 and pups were quickly removed. Newborns that were alive and respirating were cross-fostered to lactating females. Three days later, the litters were controlled, and pups alive by that time were counted as surviving pups.

[4] = system: undifferentiated ES cells; settings: added to the culture medium; Burdon et al. (1999), WO 0015764; cited from earlier work
[5] = system: C57BL/6 ES cell lines (Apcmin mutant or Rosa(lacZ) knock-in); assay: Production of genetically engineered and mutant inbred ES mice by tetraploid blastocyst injection; type: in vivo, mouse; design: respirating pups efficiency: concentration or dose not given beside the values
Protocol: as §3
In order to generate inbred ES mice which harbour genetic alterations we pursued two different strategies. In the first protocol ES cell lines that were established and grown in media with UO 126 (see Example I) and which harbour the C57BL/6-APCMin mutation were injected into tetraploid blastocysts. […] In the second protocol the C57BL/6 ES cell line ESAR-B6-PD.4 was genetically modified in a predetermined manner through homologous recombination using a gene targeting vector. This vector (Rosa(lacZ) knock-in) introduces a beta-galactosidase reporter gene in conjunction with a selectable hygromycin resistance gene into the endogenous Rosa26 locus of the ES cell genome (Seibler et al., Nucleic Acids Res. 31, e12, 2003). This gene targeting vector was electroporated into ESAR-B6-PD4 cells exactly as described (Seibler et al., Nucleic Acids Res. 31, e12, 2003) and hygromycin resistant ES cell colonies were selected, isolated and further expanded. The genomic DNA of resistant colonies was isolated and tested by Southern blot analysis for the occurrence of a homologous recombination event in one of the Rosa26 alleles. Cells from one of the recombined ES cell clones (ESAR-B6-PD.4-R9 A-F2) was injected into tetraploid blastocysts.

[6] = system: 129 ES cell lines (129S6/SvEvTac); assay: ES mouse production by injection of 129 inbred ES cells into tetraploid blastocysts; type: in vivo; settings: ES line ESAR-S6-PD.4 (129S6/SvEvTac) grown with PD98059, 335 injected tetraploid blastocysts
Protocol: as §3

[7] = system: C57BL/6-APCMin blastocysts; settings: UO126 10 then 4 micromolar, 33 blastocysts, 39° C
Protocol: ES cell derivation was essentially performed as described by Hogan et al. (Manipulating the mouse embryo, CSHL Press 1994, pp253-89), except that cell culture was performed at 39° C. instead of 37° C. C57BL/6 (Janvier, France), 129SvEv/Tac (Taconic M&B, Denmark) or C57BL/6-APCMin (Jackson Laboratories, USA) male and female mice were mated to obtain blastocysts from fertilized females. The C57BL/6-APCMin mouse strain harbours a spontaneous mutation in the APC tumor suppressor gene (Su L K et al (1992) Science 256:668-670) and provides a genetic model for human hereditary colon cancer. Plug positive females were set aside, and 3 days later blastocysts were isolated by flushing their uteri. […]
as §1, §2

[8] = ES line ESAR-B6-PD.13 (C57BL/6J) grown with PD98059, 180 injected tetraploid blastocysts
[9] = ES line ESAR-B6-PD.3 (C57BL/6J) grown with PD98059, 372 injected tetraploid blastocysts
[10] = ES line ESAR-B6-PD.4 (C57BL/6J) grown with PD98059, 329 injected tetraploid blastocysts
[11] = Sum of three C57BL/6 ES lines grown with PD98059, 881 injected tetraploid blastocysts
[12] = Rosa(lacZ) knock-in ES clone ESAR-B6-PD.4 R9 B-G12 (C57BL/6 J) with PD98059, 162 injected tetraploid blastocysts
[13] = ES line ESAR-APC 3 UO (C57BL/6 J Apcmin) grown with UO126, 405 injected tetraploid blastocysts
[14] = ES line ESAR-APC 9 UO (C57BL/6 J Apcmin) grown with UO126, 228 injected tetraploid blastocysts
[15] = Sum of two C57BL/6 J Apcmin ES lines grown with UO126, 633 injected tetraploid blastocysts

COc1cccc(-c2cc(=O)c3ccccc3o2)c1N [PD98059, 2′-amino-3′-methoxyflavone]
Efficiency to derive ES lines [1]: 61%
Number of established ES lines [1]: 11
Efficiency to derive ES lines ([1]; listed as PD 98059): 61%
higher efficiency of ES cell line derivation in the presence of the MEK inhibitor versus standard conditions [1]: 5 fold
Efficiency to derive ES lines [2]: 75%
Number of established ES lines [2]: 9
Efficiency to derive ES lines ([2]; listed as PD 98059): 75%
Number of respirating pups [3, 8]: 4
respirating pups efficiency [3, 8]: 2.22%
Number of surviving pups [3, 8]: 0
surviving pups efficiency [3, 8]: 0.00%
Number of respirating pups [3, 9]: 8
respirating pups efficiency [3, 9]: 2.15%
Number of surviving pups [3, 9]: 1
surviving pups efficiency [3, 9]: 0.27%
Number of respirating pups [3, 10]: 11
respirating pups efficiency [3, 10]: 3.34%
Number of surviving pups [3, 10]: 4
surviving pups efficiency [3, 10]: 1.22%
Number of respirating pups [3, 11]: 23
respirating pups efficiency [3, 11]: 2.6% and 2.61%
Number of surviving pups [3, 11]: 5
surviving pups efficiency [3, 11]: 0.57%
effect on growth of undifferentiated ES cells [4]: enhances the growth of undifferentiated ES cells
Number of respirating pups [5, 12]: 4
respirating pups efficiency [5, 12]: 2.47%
Number of respirating pups ([6]; E 19.5): 29
respirating pups efficiency ([6]; E 19.5): 8.66%
Number of surviving pups ([6]; alive three days later): 15
surviving pups efficiency ([6]; alive three days later): 4.48%

N#CC(=C(/N)Sc1ccccc1N)/C(C#N)=C(/N)Sc1ccccc1N [UO126, bis[amino[(2-aminophenyl)thio]methylene]butanedinitrile]
Efficiency to derive ES lines [7]: 36%
Number of established ES lines [7]: 12
Efficiency to derive ES lines [1]: 80%
Number of established ES lines [1]: 32
Efficiency to derive ES lines ([1]; listed as UO 126): 80%
higher efficiency of ES cell line derivation in the presence of the MEK inhibitor versus standard conditions [1]: 5 fold
Number of respirating pups [5, 13]: 11
respirating pups efficiency [5, 13]: 2.72%
Number of respirating pups [5, 14]: 1
respirating pups efficiency [5, 14]: 0.44%
Number of respirating pups [5, 15]: 12
respirating pups efficiency [5, 15]: 1.90%
respirating pups efficiency ([5]; Sum of two C57BL/6 J Apcmin ES lines grown with UO126, 633 injected tetraploid blastocysts, listed as UO 126): 1.9%
